Marks after values point to notes of the source that are not given here.
Tests used:
[1] = Stability of an aqueous solution of bendamustine as a function of pH; conditions: pH values higher than about 5
[2] = Phase 1 crossover study, urine pharmacokinetics (Example 8); type: in vivo, human; conditions: for % Aeinf / % Aelast / Aeinf / Aelast / CLR: bendamustine in urine, n=11
From the text: Urine pharmacokinetic parameters of bendamustine, M3 and M4 are presented in Table 27, Table 28 and Table 29, respectively. The percentage of the dose excreted in urine unchanged was low (2.6% and 2.1% for oral and intravenous bendamustine, respectively).

[3] = Phase 1 crossover study, safety and tolerability (Example 8); type: in vivo, human
[4] = Phase 1 crossover study, plasma pharmacokinetics after oral and i.v. bendamustine (Example 8)
Protocol: An open label, randomized two-way crossover study to assess the absolute bioavailability of oral bendamustine in patients with cancer was conducted to assess the absolute bioavailability of bendamustine administered as an oral formulation (example 2). Besides assessing the pharmacokinetics of bendamustine in plasma following oral and i.v. administration, a further objective was to evaluate the safety and tolerability of bendamustine following i.v. and especially oral administration of the formulation of example 2.
14 patients who were suffering from multiple myeloma, B-cell type chronic lymphocytic leukemia or advanced indolent non-Hodgkin's lymphoma were enrolled and were treated with bendamustine. […] After signing the informed consent form and following the screening period (days −21 to −2), eligible patients were assigned a patient number which was specific for each study site. Patients were randomized to receive one of the following on day 1 followed by the other on day 8: • a single oral dose of 110.2 mg (2×55.1 mg) bendamustine HCl • a single intravenous dose of 100 mg bendamustine HCl
Bendamustine was provided a) orally as capsules, a LFHC formulation (liquid-filled, hard-shell capsule) and b) intravenously as a solution after reconstituting a powder for the preparation of a solution for injection. The LFHC formulation (per capsule) was prepared from 55.1 mg bendamustine hydrochloride, 1.2 mg methylparaben, 0.12 mg […], 0.12 mg butylated hydroxytoluene, 10.9 mg ethanol and 532.56 mg CREMOPHOR RH40. The vial with powder for concentrate for solution was the marketed product in Germany (RIBOMUSTINE) which contains per vial 100 mg of bendamustine hydrochloride and mannitol as an excipient. This product was reconstituted with water for injection to a final concentration of 2.5 mg/ml of bendamustine HCl and was further diluted with 0.9% NaCl until about 500 ml before administration to the patient, in accordance with the instructions of the package insert.
Patients were admitted to the study site for 2 periods; days −1 to 2 (period 1) and days 7 to 9 (period 2). A total of 12 patients was to be randomized to receive treatment. Six patients were to receive treatment with a single oral dose of 110.2 mg (2×55.1 mg) bendamustine HCl (day 1) followed by a single intravenous dose of 100 mg bendamustine HCl (day 8) while 6 other patients were to receive treatment in the alternate order. Patients underwent a washout period of at least 7 days between treatments.
After oral and intravenous administration of bendamustine the concentration of bendamustine, as well as that of the active metabolites of bendamustine (M3 and M4), were determined in plasma and urine samples on day 1 and day 8. Patients returned to the study site for an end-of-study visit 7 to 14 days after completion of the second treatment period, or after early discharge/withdrawal. Subsequently the pharmacokinetic parameters of bendamustine and its metabolites were calculated.

[5] = Bendamustine HCl 100 mg intravenously, mean
[6] = Bendamustine HCl 100 mg intravenously, median
[7] = Bendamustine HCl 100 mg intravenously, min-max
[8] = Bendamustine HCl 110.2 mg orally, mean
[9] = Bendamustine HCl 110.2 mg orally, median
[10] = Bendamustine HCl 110.2 mg orally, min-max

In the case of `Cn1c(CCCC(=O)O)nc2cc(N(CCCl)CCCl)ccc21` [bendamustine, 4-[5-[bis(2-chloroethyl)amino]-1-methylbenzimidazo-2-yl]butanoic acid], the “stability of an aqueous solution” value [1] is reported as “significant hydrolytic decomposition”, the “% Aeinf” value [2, 5] is reported as 2.07% and the “% Aelast” value [2, 5] is reported as 2.07%. The Aeinf [2, 5] was 1.874 mg, the Aelast [2, 5] was 1.88 mg and the “% Aeinf” value [2, 6] was 1.22%. The “% Aelast” value [2, 6] was 1.23%, the Aeinf [2, 6] was 1.11 mg and the Aelast [2, 6] was 1.12 mg. The “% Aeinf” value [2, 7] was 0.27-8.8%, the “% Aelast” value [2, 7] was 0.27-8.8% and the Aeinf [2, 7] was 0.24 to 8.0 mg. For the same compound, the Aelast [2, 7] was 0.24 to 8.0 mg, the CLR [2, 7] was 0.06 to 1.4 L/h and the “% Aeinf” value [2, 8] was 2.64%. The “% Aelast” value [2, 8] was 2.66%, the Aeinf [2, 8] was 2.64 mg and the Aelast [2, 8] was 2.66 mg. For the same compound, the CLR [2, 8] was 0.788 L/h, the “% Aeinf” value [2, 9] was 2.23% and the “% Aelast” value [2, 9] was 2.23%. For the same compound, the Aeinf [2, 9] was 2.23 mg, the Aelast [2, 9] was 2.23 mg and the “% Aeinf” value [2, 10] was 0.40-5.8%. For the same compound, the “% Aelast” value [2, 10] was 0.40-5.9%, the Aeinf [2, 10] was 0.40 to 5.8 mg and the Aelast [2, 10] was 0.40 to 5.9 mg. The CLR [2, 10] was 0.18 to 2.0 L/h, the “percentage of the dose excreted in urine unchanged” value ([2]; patients, intravenous) was 2.1% and the “patients with at least 1 adverse event considered related to study drug” value ([3]; intravenous dose) was “no patients”. For the same compound, the “patients with treatment-emergent adverse events” value ([3]; intravenous treatment, 100 mg) was 25%, the safety and tolerability ([3]; intravenous, single dose 100 mg) was “safe and well tolerated” and the “deaths during the study” value ([3]; oral and intravenous) was “No deaths occurred”. For the same compound, the “patients with at least 1 adverse event considered related to study drug” value ([3]; oral dose) was 29%, the “patients with treatment-emergent adverse events” value ([3]; oral treatment, 110.2 mg) was 43% and the safety and tolerability ([3]; oral, single dose 110.2 mg) was “safe and well tolerated”. The F ([4]; Bendamustine HCl 110.2 mg orally vs 100 mg intravenously, arithmetic mean, n=11) was 69.0† %, the CL/F ([4]; bendamustine in plasma, Bendamustine HCl 110.2 mg orally, mean, n=12) was 31.7 L/h and the “Mean t1/2” value ([4]; patients, intravenous administration) was “approximately 30 minutes”. For the same compound, the “absolute bioavailability (oral versus intravenous ratio of AUCinf), geometric mean” value ([4]; patients, oral 110.2 mg LFHC (example 2) vs i.v. 100 mg, 90% CI: 55%, 78%) was 66%, the tmax ([4]; patients, oral administration) was “approximately 0.95 hours” and the “tmax, individual values” ([4]; patients, oral administration) was 0.25 h and 1.8 h. For the same compound, the “Mean t1/2” value ([4]; patients, oral intake) was “approximately 30 minutes” and the “Cmax after oral dosing as % of Cmax after intravenous dosing” value ([4]; patients, 90% CI: 32%, 54%) was 42%.

— patent publication US10993933B2, “Oral dosage forms of bendamustine” (ASTELLAS DEUTSCHLAND GMBH, priority 2010, dated 2021)
